Assay results reported in patent US20150038500A1, “PHARMACEUTICAL COMPOSITION FOR PREVENTING AND TREATING OPHTHALMIC DISORDERS” (CATHOLIC UNIVERSITY INDUSTRY-ACADEMIC COOPERATION FOUNDATION, priority 2011, published 2015).
“Also recorded” adds a separate entry of the source.

Legend:
corneal wound models = test: Corneal wound healing effect test (corneal epithelium removal model); type: in vivo, New Zealand white rabbits
Protocol: It was examined whether the compounds of formula (1) show clinically stable corneal wound healing effects in ophthalmologic surgery such as LRP (laser reversal of presbyopia), LASIK (laser assisted in-situ keratomileusis) and LASEK (laser assisted sub-epithelial keratomileusis). For this, 16 New Zealand white rabbits of 2.0˜2.5 kg were prepared as test animals, anesthetized via intramuscular injection with 15 mg/kg of Zoletil and 5 mg/kg of Xylazine, and then their corneal epitheliums with diameters of 10-12 mm or so were removed using a surgery blade (No. 15) and a rotary epithelial scrubber to produce corneal wound models. At 30 min. after the above-mentioned surgery, two drops of compound 1, that is, (tetrahydropyran-4-ylmethyl)-[2-phenyl-5-(1,1-dioxo-thiomorpholine-4-yl)methyl-1H-indole-7-yl]amine) (KDR Biotech. Co., Ltd., Seoul, Korea) of 50 μM were applied to the experimental group and two drops of a physiological saline were applied to the control group and then, they wore contact lenses, and one drop of the same medicines was applied at 12-hour intervals. To measure a wound area in the experimental group and the control group, their corneal surfaces were stained with Fluorescin using Fluorescin (Haag-Streit International, Switzerland) strips and their diameters were measured using a microcaliper at 24-hour intervals. In the meantime, for the histological evaluation of the experimental group and the control group, they were anesthetized with 25% urethane on the first, second and third day to extract their eyeballs and then, their anterior eye parts including cornea were embedded in wax (Polyscience, USA) to produce 5-μm fragments, which were then stained with Hematoxylin & Eosin and observed using a microscope.

[1] = test system: MNU (N-methyl-N-nitrosourea)-induced retinal degeneration models; test: Efficiency test in MNU-induced retinal degeneration animal model; type: in vivo, Sprague-Dawley rats
Protocol: The compounds of formula (1) were applied to retinal degeneration which is hard to cure or incurable to evaluate their effects. For this, 3 250-g Sprague-Dawley rats were prepared as a test animal, and injected with 75 mg/kg of N-methyl-N-nitrosourea (MNU) via an intraperitoneal route to induce retinal degeneration, thereby to produce retinal degeneration models. At 30 min. after the retinal degeneration induction, 10 μl of compound 1, that is, (tetrahydropyran-4-ylmethyl)-[2-phenyl-5-(1,1-dioxo-thiomorpholine-4-yl)methyl-1H-indole-7-yl]amine) (KDR Biotech. Co., Ltd., Seoul, Korea) of 50 μM and a physiological saline was injected into the vitreous body of the experimental group and the control group, respectively and then, the same medicines were injected via the same methods after 72 hours of the retinal degeneration induction. To evaluate the healing effects of retinal degeneration in the experimental group and the control group, on the 5th day of the retinal degeneration induction, the animals were anesthetized using 8% chloral hydrate (0.5 mg/kg) and subjected to electroretinogram (ERG) test (UTAS-2000; LKC Technologies, USA), in which scotopic response was recorded as a single flash response having a strength of 0.9 log (cd s) m^−2 or higher. In the meantime, for the histological evaluation of the experimental group and the control group, their eyeballs were extracted from the animals which completed the electroretinogram test on the 5th day of the retinal degeneration induction to produce eyecups, and then they were embedded in wax to produce 5-μm fragments, which were then stained with Hematoxylin & Eosin and observed using a microscope.

[2] = test system: human retinal pigment epithelial cell line ARPE-19; test: Protection efficiency test of retinal pigment epithelial cell (NaIO3-induced apoptosis, MTT assay); type: cell-based; conditions: 10 mM NaIO3 then 1 μM compound
Protocol: A human retinal pigment epithelial cell line ARPE-19 was treated with 10 mM of NaIO3, which is a retinal pigment epithelial cell apoptosis inducing agent, to induce apoptosis and then, it was treated with compound 2 of the invention, that is, (5-(1,1-dioxo-thiomorpholine-4-yl)methyl-2-phenyl-1H-indole-7-yl)-(1-methanesulfonyl-piperidine-4-yl)-amine (Enzo Life Sciences, Inc.) of 1 μM, and the compound treatment group and the non-treatment group were analyzed about their apoptosis degree using an MTT assay and survived cells were comparatively analyzed.

white rat retina explant = test: Retinal nerve cell protection efficiency test on low oxygen stimulation (retinal explant culture); type: cell-based; conditions: hypoxic chamber 30 min, 1 μM compound, cultivated 3 days
Protocol: A white rat retina was cultivated overnight under explant culture conditions and then, damaged with low oxygen in a hypoxic chamber for 30 min., and cultivated for 3 days with or without being treated with compound 2 of 1 μM, and after the cultivation, the obtained retinal explants were stained and observed using a microscope.

[3] = 10 μl of 50 μM intravitreal at 30 min and 72 hours, ERG on 5th day

ERG response higher than the control group [1, 3]	SMILES	time until corneal wound healed (Fluorescin stain) (corneal wound models; 50 μM eye drops at 12-hour intervals, saline control healed on the 4th to 5th day)	healing effect on damaged corneal area (fluorescin staining) in comparison with control group (corneal wound models; 50 μM eye drops, damaged areas right after wound induction and on the third day)	corneal epithelium in Hematoxylin & Eosin stained corneal tissue fragments (corneal wound models; 50 μM eye drops, third day of drug treatment, control epithelium remained damaged)	electroretinogram a- and b-wave response compared to control group [1, 3]	retinal tissue fragments stained with Hematoxylin & Eosin (histology) ([1]; 10 μl of 50 μM intravitreal, 5th day, control showed severe retinal degeneration)	survived cells (MTT assay) in comparison with control group [2]	outer nuclear layer (ONL) and inner nuclear layer (INL) of retinal explant after low oxygen damage (white rat retina explant)
200%	O=S1(=O)CCN(Cc2cc(NCC3CCOCC3)c3[nH]c(-c4ccccc4)cc3c2)CC1 [compound 1, (tetrahydropyran-4-ylmethyl)-[2-phenyl-5-(1,1-dioxo-thiomorpholine-4-yl)methyl-1H-indole-7-yl]amine]	≤ 3 days	statistically significant (*** P<0.001) healing effect	completely restored	increased response in both a- and b-waves	close to a normal tissue; also recorded: well-aligned retinal structure		
	CS(=O)(=O)N1CCC(Nc2cc(CN3CCS(=O)(=O)CC3)cc3cc(-c4ccccc4)[nH]c23)CC1 [compound 2, (5-(1,1-dioxo-thiomorpholine-4-yl)methyl-2-phenyl-1H-indole-7-yl)-(1-methanesulfonyl-piperidine-4-yl)-amine]						statistically significant (* P<0.05; Student's t-test) survival results	well preserved
